One may read the pIC50 as the IC50 on a negative log10 scale, so that one unit is a factor of ten. A higher pIC50 goes with a small IC50.

pIC50: −log10 of the molar value.

For this assay, the target named is T1, Human farnesyl pyrophosphate synthase (FPPS, Swissprot ID: P14324) (Homo sapiens, UniProt P14324).
T1 construct: made in house
T1 sequence (P14324 67-419 limits assumed): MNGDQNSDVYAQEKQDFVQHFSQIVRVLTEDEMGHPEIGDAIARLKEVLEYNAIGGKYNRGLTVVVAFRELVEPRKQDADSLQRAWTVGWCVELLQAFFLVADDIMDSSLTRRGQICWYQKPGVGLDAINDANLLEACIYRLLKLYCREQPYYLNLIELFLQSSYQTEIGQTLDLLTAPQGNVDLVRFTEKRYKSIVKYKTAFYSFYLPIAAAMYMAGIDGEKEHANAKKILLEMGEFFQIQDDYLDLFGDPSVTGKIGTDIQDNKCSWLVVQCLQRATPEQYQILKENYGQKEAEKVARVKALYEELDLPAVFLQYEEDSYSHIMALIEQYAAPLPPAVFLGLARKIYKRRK
Kind of assay: FPPS assay (label-free LC/MS/MS quantification of farnesyl pyrophosphate). The assay is classed as biochemical. As to conditions: cell-free in vitro FPPS assay; 5 min pre-incubation with enzyme, GPP/IPP 5 μM each, 30 min reaction. The protocol:
For example, in a cell-free in vitro assay the superiority of compounds of the formula I over compounds already known can be shown. Briefly, the reaction proceeds in the presence of enzyme and an inhibitor of the formula I, and the reaction product (farneysyl pyrophosphate) is quantified by LC/MS/MS.
In detail, the inhibitor and enzyme are pre-incubated before adding the substrates
The assay is a label-free assay for farnesyl pyrophosphate synthase (FPPS) based on LC/MS/MS. This method quantifies in-vitro untagged farnesyl pyrophosphate (FPP) and is suitable for high throughput screening (HTS) to find inhibitors of FPPS and for the determinations of IC50 values of candidate compounds. The analysis time is 2.0 minutes with a total cycle time of 2.5 minutes. The analysis can be formatted for 384-well plates resulting in an analysis time of 16 hours per plate.
Pentanol, methanol, and isopropyl alcohol are HPLC grade and obtained from Fisher Scientific, DMIPA is from Sigma-Aldrich. Water is from an in-house Milli-Q system. The assay buffer (20 mM HEPES, 5 mM MgCl2 and 1 mM CaCl2) is prepared by dilution from […] stock solutions obtained from Sigma-Aldrich. Standards of geranyl pyrophosphate (GPP), […], and farnesyl S-thiolopyrophosphate (FSPP) are from Echelon Biosciences (Salt Lake City, Utah). Human farnesyl pyrophosphate synthase (FPPS, Swissprot ID: P14324) (13.8 mg/mL) is prepared as described by Rondeau at al (ChemMedChem 2006, 1, 267-273.
LC/MS/MS analyses are performed on a Micromass Quattro Micro tandem quadrupole mass analyser (Waters Corp, Milford, Mass., USA) interfaced to an Agilent 1100 binary LC pump Agilent Technologies, Inc., Santa Clara, Calif., USA). Injection is performed with a CTC Analytics autosampler (Leap Technologies Inc., Carrboro, N.C., USA) using an injection loop size of 2.5 μL. Chromatography is performed on a Waters 2.1×20 mm Xterra MS C18 5 μm guard column (P/N186000652) (Waters Corp., Milford, Mass., USA) contained in a guard column holder (P/N 186000262) using 0.1% DMIPA/methanol as solvent A and 0.1% DMIPA/water as solvent B (DMIPA is dimethylisopropylamine). The gradient is 5% A from 0.00 to 0.30 min, 50% A at 0.31 min., 80% A at 1.00 min., and 5% A from 1.01 to 2.00 min. The flow rate is 0.3 mL/min, and the flow is diverted to waste from 0.00 to 0.50 min and again from 1.20 to 2.00 min.
The Multiple Reaction Monitoring (MRM) transitions monitored are 381->79—for FPP and 397->159—for FSPP at a collision energy of 22 eV and a collision cell pressure of 2.1×10-3 mbar of Ar. The dwell time per transition is 400 msec with a span of 0.4 Da. The inter-channel delay and interscan delay are both 0.02 sec. Other mass spectrometric operating parameters are: capillary, 2.0 kV; cone, 35 V; extractor, 2.0 V, source temp., 100 ° C.; desolvation gas temp., 250° C.; desolvation gas flow, 650 L/hr; cone gas flow, 25 L/hr; multiplier, 650 V.
The total cycle time per sample is 2.5 minutes. Since the analysis is formatted for 384-well plates, a plate is analyzed in 16 hours. The chromatograms are processed using Quanlynx software, which divides the area of individual FPP peaks by the area of the FSPP peaks (internal standard). The resulting values are reported as the relative response for the corresponding sample well.
Into each well of a 384-well plate, 5 μL of compound in 20% DMSO/water is placed. […]
`Cc1ccc(CCCc2cncn2CC(O)(P(=O)(O)O)P(=O)(O)O)cc1` [Example 5, {1-Hydroxy-1-phosphono-2-[5-(3-p-tolyl-propyl)-imidazol-1-yl]-ethyl}-phosphonic acid] showed a pIC50 of 8.46.
With `O=P(O)(O)C(O)(Cn1cnc(CCc2ccccc2)c1)P(=O)(O)O` [Example 3, [1-Hydroxy-2-(4-phenethyl-imidazol-1-yl)-1-phosphono-ethyl]-phosphonic acid] the figure was 8.72.
With `O=P(O)(O)C(O)(Cn1cnc(Cc2ccccc2)c1)P(=O)(O)O` [Example 2, [2-(4-Benzyl-imidazol-1-yl)-1-hydroxy-1-phosphono-ethyl]-phosphonic acid] the figure was 8.85.
Compound `O=P(O)(O)C(O)(Cn1cncc1CCc1ccccc1)P(=O)(O)O` [Example 4, [1-Hydroxy-2-(5-phenethyl-imidazol-1-yl)-1-phosphono-ethyl]-phosphonic acid] showed a pIC50 of 8.17.
For the compound `O=P(O)(O)C(O)(Cn1cncc1CCCc1ccccc1)P(=O)(O)O` [Example 1, {1-Hydroxy-2-[5-(3-phenyl-propyl)-imidazol-1-yl]-1-phosphono-ethyl}-phosphonic acid], the pIC50 was 8.72.

These data come from patent publication US20110257131A1, “PHENYLALKYL-IMIDAZOLE-BISPHOSPHONATE COMPOUNDS” (NOVARTIS AG, priority 2008, published 2011).
